Reference: PMC9671962 (Communications Biology, 2022)
Like-named read-outs stand apart in the source and are kept apart here.

Assays:
[1] = design: method as in PMID 27841728, PMID 28222073; conditions: cited from earlier work
[2] = test system: neuroblastoma; conditions: cited from earlier work
[3] = design: method as in PMID 28408529; conditions: cited from earlier work
[4] = mice; cited from earlier work
[5] = test system: NB-EBC1x tumor; assay: Biodistribution, autoradiography and tumor dosimetry in NB-EBC1x tumor-bearing mice; type: in vivo, female SCID CB17 mice; conditions: 1 hour
Procedure: At various time points mice were euthanized and tissues were harvested, weighed, and assayed for radioactivity by gamma counter. Decay corrected data presented as percent injected dose per gram of tissue (%ID/g). Human dosimetry was calculated using OLINDA/EXM software by fitting time activity curves for biodistribution data. Tissue autoradiography was performed by freezing excised tumors at 1 h postinjection of each respective treatment. One tumor was collected for each treatment group. Tumors were cryosectioned (Leica Cryotome) at a thickness of 20 µm. Each section was collected with a 200 µm gap and a total of three sections were collected for each tumor. Sections were then exposed to a phosphorfilm for 60 h and films were read on a Cyclone Plus phosphorimager (Perkin Elmer). Experimental conditions have been included in the Supplementary Methods.
Animal studies were performed in female mice due to the lack of sex-related differences for [^211At]PTT tolerability from initial dose response studies performed in female and male mice. Female mice were chosen due to their underlying behavior towards other study subjects that reduced nonstudy-related causes for decreased wellness. Pre-clinical efficacy studies were performed through “single mouse testing” to more closely recapitulate a clinical trial. […] Number size for treatment groups was determined by model tumor growth reproducibility, which was previously shown to have less than 5% normal variation with at least two animals. Statistical tests for tumor response and event-free survival (EFS) were performed as a grouped analysis that included all tumor models treated at each respective dose level (n = 2 per model per dose level). Statistical differences between treatment groups for tumor response was performed by paired-model T-test that compared reduction in tumor volume for the 36 MBq/kg dose level vs. 24 MBq/kg or 12 MBq/kg. Event free survival was measured by area over the curve method to quantify time to event, which was set as tumor growth exceeding 2 cm[3],[19]. Differences in EFS were tested across all treated models for each respective dose level, and against untreated controls, by paired-model ANOVA analysis. Associations of drug target expression and response were performed by linear regression analysis of EFS and PARP1 mRNA expression. Genetic signatures were visually presented as a function of EFS and no statistical tests were applied. Blood and marrow toxicity studies were performed with n = 5 sample sizes and powered to detect >20% differences between untreated controls and treated animals. Results were tested for significance by one-way ANOVA comparison from untreated controls. Marrow colony formation assays were performed in replicates of 2 for each mouse subject, dependent on marrow isolation, and all replicates are included in final analyses. Statistical analysis was performed by ordinary one-way ANOVA comparison between the mean of control and test groups. Biodistribution studies were performed with n = 3 mice per time-point. Human dosimetry was calculated using OLINDA/EXM v1.1 software by fitting time activity curves for biodistribution data in a healthy mouse model. Tumor dosimetry was calculated by OLINDA/EXM v1.1 by fitting time activity curves for NB-EBC1 tumors from biodistribution data. All statistical analyses were performed in GraphPad Prism version 9.3.1 unless indicated otherwise.

[6] = in vitro; ref previously shown by the authors, no reference given; cited from earlier work
[7] = design: method as in PMID 27841728, PMID 27261505; conditions: cited from earlier work
[8] = test system: PARP1; conditions: cited from earlier work; for maximum standardized uptake values (SUVmax): clinical PET

In the case of `CNCc1ccc(-c2[nH]c3cc(F)cc4c3c2CCNC4=O)cc1` [rucaparib], the “hepatobiliary clearance, share of blood clearance” value [1] is given as greater than 90%.

For `N=C(N)NCc1cccc([131I])c1` [[^131I]MIBG, iodine-131-metaiodobenzylguanidine], the overall survival benefit [2] is given as “below 40%”.

In the case of `O=C([O-])CC[C@H](NC(=O)N[C@@H](CCCCNC(=O)[C@H](Cc1ccc2ccccc2c1)NC(=O)C1CCC(CNC(=O)CN2CCN(CC(=O)[O-])CCN(CC(=O)[O-])CCN(CC(=O)[O-])CC2)CC1)C(=O)[O-])C(=O)[O-].[225Ac].[H+].[H+].[H+]` (stereo partly shown) [[^225Ac]PSMA-617], the kidney dose [3] is listed as 740 mSv/MBq.

For `[211At]` [free astatine-211, astatine-211, reference compound], the “MTD for a single dose” value [4] is listed as “greater than 50 MBq/kg”, the “tumor uptake compared to [^211At]PTT” value ([5]; 2-way ANOVA p value 0.0088) is listed as “lower uptake in tumor” and the “thyroid uptake compared to [^211At]PTT” value ([5]; 2-way ANOVA p-value 0.0004) is listed as “significantly higher uptake in thyroid”. The “potency relative to [211At]PTT in vitro” value [6] was less than 100 times.

In the case of `O=C1NCCn2c(-c3ccc(OCC[18F])cc3)nc3cccc1c32` [[^18F]FTT, fluorine-18 Fluorthanatrace], the thyroid uptake [7] is listed as “around 4 % ID/g”, the “hepatobiliary clearance, share of blood clearance” value [1] is listed as greater than 90% and the estimated kidney dose ([8]; adults) is listed as 0.018–0.027 mGy/MBq. For the same compound, the “maximum standardized uptake values (SUVmax)” value ([8]; breast cancer) was 4–7, the “time of rapid tumor uptake kinetics post injection” value ([8]; ovarian cancer patients, minimal wash-out) was 60 to 180 min and the “maximum standardized uptake values (SUVmax)” value ([8]; ovarian cancer) was 2–9.
